Measurements taken from PubChem BioAssay AID1083212 (The Scripps Research Institute Molecular Screening Center, 2014).
Activity calls are given as the source filed them.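 How the source made its calls: active means IC50 of 10 µM or lower; inactive means IC50 above 10 µM.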

Target: Tyrosyl-DNA phosphodiesterase 2 (Homo sapiens) (UniProt O95551)
Assay: potency against TDP2 phosphodiesterase activity – biochemical, epi absorbance, IC50, late-stage follow-up (AID 1083212)
Conditions: recombinant TDP2, T5PNP hydrolysis, p-nitrophenol absorbance 415 nm

Chain of Tyrosyl-DNA phosphodiesterase 2 (Homo sapiens) (O95551 whole entry, looked up): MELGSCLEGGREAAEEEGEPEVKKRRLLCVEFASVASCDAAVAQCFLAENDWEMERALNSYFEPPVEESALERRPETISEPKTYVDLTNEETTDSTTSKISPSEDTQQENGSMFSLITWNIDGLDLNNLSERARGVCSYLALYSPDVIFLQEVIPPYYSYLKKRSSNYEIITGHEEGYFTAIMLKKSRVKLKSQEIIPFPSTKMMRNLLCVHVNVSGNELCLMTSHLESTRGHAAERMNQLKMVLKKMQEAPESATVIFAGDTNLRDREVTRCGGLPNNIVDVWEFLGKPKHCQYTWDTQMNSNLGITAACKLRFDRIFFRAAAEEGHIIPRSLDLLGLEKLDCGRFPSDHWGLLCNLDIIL

IC50 | Compound
> 128 µM (inactive) | COc1ccc(CNC(=S)Nc2ccc(S(N)(=O)=O)cc2)cc1
> 128 µM (inactive) | Cc1ccc(NC2=C/C(=N\S(=O)(=O)c3cccs3)c3ccccc3C2=O)cc1
1.32 µM | O=C(O)c1ccc(NC2=C/C(=N/S(=O)(=O)c3cccs3)c3ccccc3C2=O)cc1
